Laboratory results: patent US9273058B2 (BRISTOL-MYERS SQUIBB COMPANY, priority 2013, dated 2016)

target: CK1δ (Homo sapiens, UniProt P48730); assay: CK1δ kinase assay (Caliper LabChip electrophoretic separation of fluoresceinated peptide substrate and product); type: biochemical; details: 200 pM CK1δ, 50 μM ATP, 1.5 μM peptide, 22 hours at room temperature; read-out: CK1δ IC50 range
Method: (§1) CK1ε and CK1δ Kinase Assays
(§2) The kinase assay was performed in V-bottom 384-well plates. […] The reaction was incubated at room temperature for 22 hours and terminated by adding 45 μl of 35 mM EDTA to each sample. The reaction mixture was analyzed on the Caliper LABCHIP®3000 (Caliper, Hopkinton, Mass.) by electrophoretic separation of the unphosphorylated substrate and phosphorylated product. […] Compounds were dissolved at 10 mM in dimethylsulfoxide (DMSO) and evaluated at eleven concentrations. IC50 values were derived by non-linear regression analysis.

CK1δ, sequence (P48730 whole entry): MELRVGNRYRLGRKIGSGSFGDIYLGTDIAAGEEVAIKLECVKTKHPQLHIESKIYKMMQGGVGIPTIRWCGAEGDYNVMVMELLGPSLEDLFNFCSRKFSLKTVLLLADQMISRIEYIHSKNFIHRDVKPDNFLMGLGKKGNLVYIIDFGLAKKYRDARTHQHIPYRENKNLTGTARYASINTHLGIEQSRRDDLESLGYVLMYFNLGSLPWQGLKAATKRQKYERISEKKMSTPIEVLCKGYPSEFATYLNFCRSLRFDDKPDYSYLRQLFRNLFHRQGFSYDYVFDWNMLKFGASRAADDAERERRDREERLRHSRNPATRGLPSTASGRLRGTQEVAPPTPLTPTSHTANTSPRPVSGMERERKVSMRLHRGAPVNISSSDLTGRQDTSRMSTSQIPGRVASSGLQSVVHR

Row | SMILES | IC50
1 | CC1(NC(=O)N2CCn3nc(-c4cccc(Cl)c4)c(C(N)=O)c3C2)CCC1 [Compound A44, 2-(3-Chlorophenyl)-N^5-(1-methylcyclobutyl)-6,7-dihydropyrazolo[1,5-a]pyrazine-3,5(4H)-dicarboxamide] | 0.01 to 10 nM
2 | N#CC1(NC(=O)N2CCn3nc(-c4cccc(Cl)c4)c(C(N)=O)c3C2)CC1 [Compound A45, 2-(3-Chlorophenyl)-N^5-(1-cyanocyclopropyl)-6,7-dihydropyrazolo[1,5-a]pyrazine-3,5(4H)-dicarboxamide] | 0.01 to 10 nM
3 | COC12CCC(NC(=O)N3CCn4nc(-c5ccc(F)c(Cl)c5)c(C(N)=O)c4C3)(CC1)C(=O)C2 [Compound A60, 2-(3-Chloro-4-fluorophenyl)-N^5-(4-methoxy-2-oxobicyclo[2.2.2]octan-1-yl)-6,7-dihydropyrazolo[1,5-a]pyrazine-3,5(4H)-dicarboxamide] | 0.01 to 10 nM
4 | N#Cc1ccc(C23CCC(NC(=O)N4CCn5nc(-c6cccc(Cl)c6)c(C(N)=O)c5C4)(CC2)CC3)cc1 [Compound A74, 2-(3-Chlorophenyl)-N^5-(4-(4-cyanophenyl)bicyclo[2.2.2]octan-1-yl)-6,7-dihydropyrazolo[1,5-a]pyrazine-3,5(4H)-dicarboxamide] | 0.01 to 10 nM
5 | NC(=O)c1c(-c2cccc(Cl)c2)nn2c1CN(C(=O)NC13CCC(F)(CC1)CC3)CC2 [Compound A75, 2-(3-Chlorophenyl)-N^5-(4-fluorobicyclo[2.2.2]octan-1-yl)-6,7-dihydropyrazolo[1,5-a]pyrazine-3,5(4H)-dicarboxamide] | 0.01 to 10 nM

The remaining lines, values ahead:

Row | IC50 | SMILES
6 | 0.01 to 10 nM | NC(=O)c1c(-c2ccc(F)c(Cl)c2)nn2c1CN(C(=O)NC13CCC(C(F)F)(CC1)CC3)CC2 [Compound A57, 2-(3-Chloro-4-fluorophenyl)-N^5-(4-(difluoromethyl)bicyclo[2.2.2]octan-1-yl)-6,7-dihydropyrazolo[1,5-a]pyrazine-3,5(4H)-dicarboxamide]
7 | 0.01 to 10 nM | COC12CCC(NC(=O)N3CCn4nc(-c5ccc(F)c(Cl)c5)c(C(N)=O)c4C3)(CC1)CC2 [Compound A59, 2-(3-Chloro-4-fluorophenyl)-N^5-(4-methoxybicyclo[2.2.2]octan-1-yl)-6,7-dihydropyrazolo[1,5-a]pyrazine-3,5(4H)-dicarboxamide]
8 | 0.01 to 10 nM | N#CC12C3C4C1C1C2C3C41NC(=O)N1CCn2nc(-c3ccc(F)c(Cl)c3)c(C(N)=O)c2C1 (stereo not shown) [Compound A70, N^5-(4-Cyanocuban-1-yl)-2-(3-chloro-4-fluorophenyl)-6,7-dihydropyrazolo[1,5-a]pyrazine-3,5(4H)-dicarboxamide]
9 | 0.01 to 10 nM | NC(=O)c1c(-c2ccc(F)c(Cl)c2)nn2c1CN(C(=O)NC13C4C5C1C1C3C4C51F)CC2 (stereo not shown) [Compound A71, N^5-(4-Fluorocuban-1-yl)-2-(3-chloro-4-fluorophenyl)-6,7-dihydropyrazolo[1,5-a]pyrazine-3,5(4H)-dicarboxamide]
10 | 0.01 to 10 nM | NC(=O)c1c(-c2ccc(F)c(Cl)c2)nn2c1CN(C(=O)NC13C4C5C6C4C1C6C53)CC2 (stereo not shown) [Compound A72, N^5-(Cuban-1-yl)-2-(3-chloro-4-fluorophenyl)-6,7-dihydropyrazolo[1,5-a]pyrazine-3,5(4H)-dicarboxamide]
11 | 0.01 to 10 nM | NC(=O)c1c(-c2ccc(F)c(Cl)c2)nn2c1CN(C(=O)NC13CCC(CC1)C3)CC2 [Compound A73, N^5-(Bicyclo[2.2.1]heptan-1-yl)-2-(3-chloro-4-fluorophenyl)-6,7-dihydropyrazolo[1,5-a]pyrazine-3,5(4H)-dicarboxamide]

target: CK1ε (Homo sapiens, UniProt P49674); assay: CK1ε kinase assay (Caliper LabChip electrophoretic separation of fluoresceinated peptide substrate and product); type: biochemical; details: 200 pM CK1ε, 50 μM ATP, 1.5 μM peptide, 22 hours at room temperature; read-out: CK1ε IC50 range
Method: as §1, §2

CK1ε, sequence (P49674 whole entry): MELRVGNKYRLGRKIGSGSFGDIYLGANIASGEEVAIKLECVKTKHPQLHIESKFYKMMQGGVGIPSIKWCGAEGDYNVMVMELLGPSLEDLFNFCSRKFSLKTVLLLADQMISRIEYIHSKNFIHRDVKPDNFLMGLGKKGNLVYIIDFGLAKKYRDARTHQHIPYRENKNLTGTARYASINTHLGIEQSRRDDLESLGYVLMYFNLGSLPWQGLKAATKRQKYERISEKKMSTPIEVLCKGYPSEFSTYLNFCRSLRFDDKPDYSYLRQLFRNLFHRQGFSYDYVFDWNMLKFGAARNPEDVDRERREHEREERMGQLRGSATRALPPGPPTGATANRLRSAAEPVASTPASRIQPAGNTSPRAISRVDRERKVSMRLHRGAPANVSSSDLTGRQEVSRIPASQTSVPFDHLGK

Row | SMILES | IC50
12 | CCC1CN(C(=O)NC(C)(C)C)Cc2c(C(N)=O)c(-c3ccc(F)c(Cl)c3)nn21 (single isomer, unassigned) [Compound A98, N^5-(tert-Butyl)-2-(3-chloro-4-fluorophenyl)-7-ethyl-6,7-dihydropyrazolo[1,5-a]pyrazine-3,5(4H)-dicarboxamide] | 0.01 to 10 nM
13 | NC(=O)c1c(-c2ccc(F)cc2)nn2c1CN(C(=O)NC1CCCCC1)CC2 [Compound 3, N^5-Cyclohexyl-2-(4-fluorophenyl)-6,7-dihydropyrazolo[1,5-a]pyrazine-3,5(4H)-dicarboxamide] | 10 to 100 nM
